Reference: the supplement of paper PMC10307832

Key:
Assay in all cases: relative viability (nuclei count vs DMSO), 5 days (fraction); higher = more cells survive
[1] = compound: Cc1ccc2nc(NCCN)c3ncc(C)n3c2c1 + CCNC(=O)c1noc(-c2cc(C(C)C)c(O)cc2O)c1-c1ccc(CN2CCOCC2)cc1 [Luminespib] (partner 0.01 µM)
Method in brief: (§1)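 A single step with final 0.05% Triton X-100, 1% formaldehyde and 1 ug/ml Hoechst fixed the cells and stained nuclei 5 days after treatment. Lung cancer cell lines in 1536-well plates had been treated by pin tool the day after seeding with one drug alone or a fixed anchor-drug dose plus five library-drug doses (not always all listed) in √10 steps, and nuclei were counted on 4× images. Relative viability is the ratio of nuclei in treated wells to nuclei in vehicle wells, taken as the median of duplicate plates.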

[2] = compound: Cc1ccc2nc(NCCN)c3ncc(C)n3c2c1 + N=C(N)NC(=N)NCCc1ccccc1 [Phenformin] (partner 250 µM)
Method in brief: as §1

[3] = compound: Cc1ccc2nc(NCCN)c3ncc(C)n3c2c1 + Nc1ncn([C@H]2C[C@H](O)[C@@H](CO)O2)c(=O)n1 [Decitabine] (partner 2 µM)
Method in brief: as §1

Salubrinal + Linsitinib = compound: O=C(/C=C/c1ccccc1)NC(NC(=S)Nc1cccc2cccnc12)C(Cl)(Cl)Cl [Salubrinal] + C[C@]1(O)C[C@@H](c2nc(-c3ccc4ccc(-c5ccccc5)nc4c3)c3c(N)nccn32)C1 [Linsitinib] (partner 1 µM)
Method in brief: as §1

Cell Line | relative viability ([1]; first compound 0.04 µM) | relative viability ([1]; first compound 0.1265 µM) | relative viability ([1]; first compound 0.4 µM) | relative viability ([1]; first compound 1.265 µM) | relative viability ([1]; first compound 4 µM) | relative viability ([2]; first compound 0.04 µM) | relative viability ([2]; first compound 0.1265 µM) | relative viability ([2]; first compound 0.4 µM) | relative viability ([2]; first compound 1.265 µM) | relative viability ([2]; first compound 4 µM) | relative viability ([3]; first compound 0.04 µM) | relative viability ([3]; first compound 0.1265 µM) | relative viability ([3]; first compound 0.4 µM) | relative viability ([3]; first compound 1.265 µM) | relative viability ([3]; first compound 4 µM) | relative viability (Salubrinal + Linsitinib; first compound 0.08 µM) | relative viability (Salubrinal + Linsitinib; first compound 0.253 µM) | relative viability (Salubrinal + Linsitinib; first compound 0.8 µM) | relative viability (Salubrinal + Linsitinib; first compound 2.53 µM) | relative viability (Salubrinal + Linsitinib; first compound 8 µM)
LU99A | 0.274 | 0.28 | 0.242 | 0.254 | 0.261 | 0.797 | 0.78 | 0.673 | 0.892 | 0.798 | 1 | 0.922 | 0.91 | 0.812 | 0.833 | 0.611 | 0.545 | 0.579 | 0.59 | 0.515
LXF-289 | 0.633 | 0.816 | 0.653 | 0.706 | 0.618 | 0.528 | 0.546 | 0.543 | 0.486 | 0.524 | 0.388 | 0.409 | 0.365 | 0.353 | 0.423 | 1.04 | 0.861 | 1.03 | 0.968 | 0.893
NCI-H23 | 0.207 | 0.227 |  | 0.201 | 0.217 | 0.797 | 0.858 | 0.704 | 0.786 | 0.754 | 0.312 | 0.356 | 0.321 | 0.328 | 0.34 | 0.576 | 0.473 | 0.516 | 0.67 | 0.535
NCI-H322M | 0.908 | 0.845 | 0.961 | 0.858 | 0.734 | 0.882 | 0.701 | 0.767 | 0.798 | 0.759 | 0.715 | 0.715 | 0.707 | 0.748 | 0.812 | 1.1 | 0.858 | 0.927 | 0.891 | 0.823
NCI-H358 | 0.309 | 0.373 | 0.236 | 0.326 | 0.313 | 0.391 | 0.313 | 0.323 | 0.359 | 0.402 | 0.225 | 0.216 | 0.239 | 0.257 | 0.206 | 0.77 | 0.693 | 0.76 | 0.773 | 0.637
NCI-H441 | 0.285 | 0.482 | 0.312 | 0.465 | 0.322 | 0.791 | 0.85 | 0.922 | 0.923 | 0.769 | 0.235 | 0.245 | 0.191 | 0.26 | 0.235 | 0.663 | 0.438 | 0.643 | 0.649 | 0.517
NCI-H460 | 0.0414 | 0.0267 | 0.0351 | 0.0331 | 0.0182 | 0.515 | 0.512 | 0.525 | 0.539 | 0.394 | 0.479 | 0.494 | 0.5 | 0.501 | 0.434 | 1.31 | 0.586 | 1 | 0.813 | 0.564
NCI-H520 | 0.204 | 0.216 | 0.231 | 0.191 | 0.235 | 0.633 | 0.573 | 0.445 | 0.517 | 0.478 | 0.488 | 0.466 | 0.439 | 0.529 | 0.503 | 1.16 | 0.688 | 1.25 | 1.12 | 1.17
NCI-H596 | 1.12 | 0.959 | 0.967 | 0.215 | 1.05 | 0.695 | 0.787 | 0.644 | 0.614 | 0.826 | 1.02 | 0.967 | 0.979 | 0.887 | 0.897 | 1.07 | 0.936 | 1.17 | 1.1 | 0.903
NCI-H647 | 0.163 | 0.187 | 0.155 | 0.136 | 0.188 | 0.758 | 0.533 | 0.494 | 0.539 | 0.476 | 0.508 | 0.362 | 0.43 | 0.421 | 0.335 | 1.26 | 1.26 | 1.48 | 1.07 | 1.27
NCI-H650 | 0.891 | 0.688 | 0.583 | 0.602 | 0.698 | 0.462 | 0.476 | 0.437 | 0.441 | 0.425 | 0.332 | 0.326 | 0.31 | 0.269 | 0.331 | 0.778 | 0.772 | 0.99 | 0.959 | 0.756
NCI-H661 | 0.932 | 0.94 | 0.929 | 0.98 | 0.8 | 0.26 | 0.375 | 0.254 | 0.293 | 0.308 | 0.559 | 0.562 | 0.56 | 0.513 | 0.552 | 0.701 | 0.464 | 0.509 | 0.561 | 0.464
NCI-H727 | 0.36 |  | 0.358 | 0.385 | 0.4 | 0.436 |  | 0.527 | 0.555 | 0.64 | 0.976 |  | 0.995 | 0.84 | 0.797 | 0.347 | 0.33 | 0.323 | 0.326 | 0.323
NCI-H838 | 0.362 | 0.344 | 0.324 | 0.3 | 0.258 | 0.655 | 0.602 | 0.587 | 0.543 | 0.568 | 0.494 | 0.461 | 0.428 | 0.44 | 0.427 | 1.25 | 0.722 | 1.08 | 1.13 | 0.98
NCI-H1355 | 0.844 | 0.73 | 0.722 | 0.691 | 0.732 | 0.484 | 0.476 | 0.441 | 0.391 | 0.42 | 0.398 | 0.364 | 0.345 | 0.356 | 0.367 | 0.976 | 0.797 | 0.856 | 0.89 | 0.751
NCI-H1395 | 0.828 | 0.701 | 0.664 | 0.534 | 0.761 | 0.45 | 0.498 | 0.412 | 0.419 | 0.46 | 0.616 | 0.708 | 0.713 | 0.669 | 0.607 | 1.31 | 1.12 | 1.09 | 0.998 | 1.15
NCI-H1437 | 1.13 | 1.09 | 1.14 | 1.08 | 1.06 | 0.289 | 0.298 | 0.327 | 0.298 | 0.278 | 0.581 | 0.526 | 0.596 | 0.495 | 0.498 | 1.27 | 0.691 | 1.19 | 1.06 | 0.853
